This passage reports IC50 results from patent US10696655B2, “Therapeutic compounds and uses thereof” (GENENTECH, INC., priority 2017, dated 2020).

The target in one test is CBP (Homo sapiens (Human), UniProt Q92793). Nature of the test: CBP TR-FRET binding assay.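 Also: displacement of a biotinylated small-molecule ligand from purified recombinant CBP read by TR-FRET, DMSO-only wells as control, IC50 from nonlinear curve fit.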 The following applies: His/Flag tagged CBP 4 nM, biotin-ligand 60 nM; read-out: CBP HTRF IC50.
Another test concerns MYC. Nature of the test: MYC RPL19 QuantiGene assay in MV-4-11 cells. It is filed as cell-based. As to conditions: Homo sapiens, MV4-11, compound 4 hours. From the text:
MYC RPL19 QuantiGene assay in MV-4-11 Cells

Chain of CBP (Q92793 whole entry): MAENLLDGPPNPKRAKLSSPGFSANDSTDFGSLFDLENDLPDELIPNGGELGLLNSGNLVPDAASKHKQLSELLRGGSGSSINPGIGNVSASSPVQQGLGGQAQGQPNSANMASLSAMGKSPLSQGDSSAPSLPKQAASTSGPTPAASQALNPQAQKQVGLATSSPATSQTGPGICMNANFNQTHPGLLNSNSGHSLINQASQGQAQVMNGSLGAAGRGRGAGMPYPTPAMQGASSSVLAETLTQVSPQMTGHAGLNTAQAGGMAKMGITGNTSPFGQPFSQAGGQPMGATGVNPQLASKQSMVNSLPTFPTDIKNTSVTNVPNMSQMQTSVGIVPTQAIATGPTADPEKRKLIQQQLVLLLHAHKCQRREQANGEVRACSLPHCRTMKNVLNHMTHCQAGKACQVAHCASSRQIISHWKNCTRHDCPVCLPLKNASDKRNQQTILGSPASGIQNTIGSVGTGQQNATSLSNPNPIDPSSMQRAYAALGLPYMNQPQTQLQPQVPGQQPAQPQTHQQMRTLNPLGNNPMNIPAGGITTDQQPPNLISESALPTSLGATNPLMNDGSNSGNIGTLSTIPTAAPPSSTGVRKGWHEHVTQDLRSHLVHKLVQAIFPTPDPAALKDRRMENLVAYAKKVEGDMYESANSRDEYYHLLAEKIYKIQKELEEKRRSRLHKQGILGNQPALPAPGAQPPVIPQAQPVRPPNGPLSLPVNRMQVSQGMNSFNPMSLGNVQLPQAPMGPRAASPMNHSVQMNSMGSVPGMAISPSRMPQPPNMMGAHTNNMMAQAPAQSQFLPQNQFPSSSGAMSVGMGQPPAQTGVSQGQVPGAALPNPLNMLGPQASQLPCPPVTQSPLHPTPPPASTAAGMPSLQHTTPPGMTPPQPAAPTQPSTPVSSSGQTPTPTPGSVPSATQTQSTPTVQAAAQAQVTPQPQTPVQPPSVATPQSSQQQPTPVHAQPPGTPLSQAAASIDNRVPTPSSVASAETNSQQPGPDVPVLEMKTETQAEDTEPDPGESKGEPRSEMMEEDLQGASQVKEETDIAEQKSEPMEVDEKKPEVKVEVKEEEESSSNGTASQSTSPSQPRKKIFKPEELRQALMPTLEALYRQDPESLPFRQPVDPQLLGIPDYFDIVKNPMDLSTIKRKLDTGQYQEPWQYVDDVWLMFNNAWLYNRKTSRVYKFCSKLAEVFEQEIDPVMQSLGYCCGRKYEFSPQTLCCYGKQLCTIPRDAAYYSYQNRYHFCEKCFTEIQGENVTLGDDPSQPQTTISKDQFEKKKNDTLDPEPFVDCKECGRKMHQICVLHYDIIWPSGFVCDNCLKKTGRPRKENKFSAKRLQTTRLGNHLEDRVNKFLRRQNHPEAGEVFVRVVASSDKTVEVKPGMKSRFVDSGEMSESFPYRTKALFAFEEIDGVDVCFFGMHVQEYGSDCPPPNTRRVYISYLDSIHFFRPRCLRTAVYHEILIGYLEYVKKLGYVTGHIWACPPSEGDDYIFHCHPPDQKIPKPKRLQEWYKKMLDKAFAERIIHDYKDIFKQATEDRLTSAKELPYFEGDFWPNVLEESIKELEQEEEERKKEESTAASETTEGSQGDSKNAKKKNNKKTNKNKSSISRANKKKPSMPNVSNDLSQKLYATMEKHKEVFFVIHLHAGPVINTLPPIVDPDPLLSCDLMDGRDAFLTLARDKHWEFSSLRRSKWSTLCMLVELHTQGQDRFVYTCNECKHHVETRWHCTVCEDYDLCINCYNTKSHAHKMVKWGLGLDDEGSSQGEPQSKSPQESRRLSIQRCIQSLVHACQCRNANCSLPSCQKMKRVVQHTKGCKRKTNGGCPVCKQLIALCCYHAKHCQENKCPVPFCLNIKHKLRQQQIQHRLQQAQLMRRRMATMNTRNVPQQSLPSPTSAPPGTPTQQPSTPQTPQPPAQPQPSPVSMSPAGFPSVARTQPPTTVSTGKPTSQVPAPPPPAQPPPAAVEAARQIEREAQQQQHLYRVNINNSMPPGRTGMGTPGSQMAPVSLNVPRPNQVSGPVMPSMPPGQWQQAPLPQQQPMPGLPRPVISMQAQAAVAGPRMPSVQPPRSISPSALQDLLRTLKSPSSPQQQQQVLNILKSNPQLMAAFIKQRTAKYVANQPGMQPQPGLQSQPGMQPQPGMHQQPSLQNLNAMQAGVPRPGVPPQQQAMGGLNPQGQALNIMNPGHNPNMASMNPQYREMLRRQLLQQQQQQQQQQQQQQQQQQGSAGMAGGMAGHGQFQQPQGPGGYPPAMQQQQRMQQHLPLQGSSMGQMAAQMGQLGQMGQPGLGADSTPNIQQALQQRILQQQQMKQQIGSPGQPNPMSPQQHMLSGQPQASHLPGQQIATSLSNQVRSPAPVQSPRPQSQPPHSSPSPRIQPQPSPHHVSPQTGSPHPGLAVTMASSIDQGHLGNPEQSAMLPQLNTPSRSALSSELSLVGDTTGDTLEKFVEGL
Description for CBP: IC50 Measurements for Inhibitors Using CBP TR FRET Binding Assay
His/Flag epitope tagged CBP was cloned, expressed, and purified to homogeneity. CBP binding and inhibition was assessed by monitoring the engagement of a biotinylated small molecule compound with the target using the TR-FRET assay technology (Perkin-Elmer). Specifically, in a 384 well ProxiPlate CBP (4 nM final) was combined with biotin-ligand (60 nM final) in 50 mM HEPES (pH 7.5), 50 mM NaCl, 1 mM TCEP, 0.01% (w/v) BSA, and 0.008% (w/v) Brij-35 either in the presence of DMSO (final 0.2% DMSO) or compound dilution series in DMSO. […] After twenty minutes of equilibration, the plates were read on an Envision instrument and IC50S calculated using a four parameter non-linear curve fit.

Consider `CNC(=O)c1cn(C)c2cc(F)c(N3CCCc4cc(-c5cnn(C)c5)c(C(F)F)cc43)cc12` [Example 56], for which the IC50 on CBP is 10 nM; in the test on MYC it was 4040 nM. The like results for `CNC(=O)c1cn(C)c2c(C3CCOCC3)cc(N3CCCc4cc(-c5cnn(C)c5)c(C(F)F)cc43)cc12` [Example 105, 5-(7-(difluoromethyl)-6-(1-methyl-1H-pyrazol-4-yl)-3,4-dihydroquinolin-1(2H)-yl)-N,1-dimethyl-7-(tetrahydro-2H-pyran-4-yl)-1H-indole-3-carboxamide] were, in that order, 11 nM and 86 nM. Taken in the same sequence, the figures for `CNC(=O)c1c[nH]c2ncc(N3CCCc4cc(-c5cnn(C)c5)c(C(F)F)cc43)cc12` [Example 68] were 15 nM and 4380 nM. As for `Cn1cc(-c2cc3c(cc2C(F)F)N(c2cc(N4CCCC4)c4c(c2)n(C)c(=O)n4C)CCC3)cn1` [Example 43], the IC50 came to 6 nM on CBP and 115 nM in the test on MYC.

Turning to `CNC(=O)c1c[nH]c2ccc(N3CCCc4cc(-c5cnn(C)c5)c(C(F)F)cc43)nc12` [Example 65], the IC50 was found to be 5 nM at CBP and 150 nM in the test with MYC. Taken in the same sequence, the figures for `CNC(=O)N1CCOc2ccc(N3CCCc4cc(-c5cnn(C)c5)c(C(F)F)cc43)cc2C1` [Example 113, 7-(7-(difluoromethyl)-6-(1-methyl-1H-pyrazol-4-yl)-3,4-dihydroquinolin-1(2H)-yl)-N-methyl-2,3-dihydrobenzo[f][1,4]oxazepine-4(5H)-carboxamide] were 14 nM and 157 nM. Take `CCC(=O)N1CCOc2ccc(N3CCCc4cc(-c5cnn(C)c5)c(C(F)F)cc43)cc2C1` [Example 78, 1-(7-(7-(difluoromethyl)-6-(1-methyl-1H-pyrazol-4-yl)-3,4-dihydroquinolin-1(2H)-yl)-2,3-dihydrobenzo[f][1,4]oxazepin-4(5H)-yl)propan-1-one]: the IC50 was 22 nM at CBP and 780 nM in the test on MYC.

As for `CNC(=O)c1cn(C)c2c(Cl)cc(N3CCCc4cc(-c5cnn(C)c5)c(C(F)F)cc43)cc12` [Example 54, 7-chloro-5-(7-(difluoromethyl)-6-(1-methyl-1H-pyrazol-4-yl)-3,4-dihydroquinolin-1(2H)-yl)-N,1-dimethyl-1H-indole-3-carboxamide], the IC50 is 59 nM on CBP and 2290 nM with MYC. For the compound `Cn1cc(-c2cc3c(cc2C(F)F)N(c2cc4c(cc2F)n(C)c(=O)n4C)CCC3)cn1` [Example 35], the IC50 came to 23 nM on CBP and 428 nM in the test on MYC. Taken in the same sequence, the figures for `CNC(=O)Nc1cc(OC)cc(N2CCCc3cc(-c4cnn(C)c4)c(C(F)F)cc32)n1` [Example 123, 1-(6-(7-(difluoromethyl)-6-(1-methyl-1H-pyrazol-4-yl)-3,4-dihydroquinolin-1(2H)-yl)-4-methoxypyridin-2-yl)-3-methylurea] were 115 nM and 3380 nM. Taken in the same sequence, the figures for `Cn1cc(-c2cc3c(cc2C(F)F)N(c2cc(C4CCOCC4)c4c(c2)n(C)c(=O)n4C)CCC3)cn1` [Example 97, 6-(7-(difluoromethyl)-6-(1-methyl-1H-pyrazol-4-yl)-3,4-dihydroquinolin-1(2H)-yl)-1,3-dimethyl-4-(tetrahydro-2H-pyran-4-yl)-1H-benzo[d]imidazol-2(3H)-one] were 4 nM and 58 nM. Turning to `CN1C(=O)Cc2ccc(N3CCCc4cc(-c5cnn(C)c5)c(C(F)F)cc43)cc21` [Example 90, 6-[7-(difluoromethyl)-6-(1-methylpyrazol-4-yl)-3,4-dihydro-2H-quinolin-1-yl]-1-methyl-indolin-2-one], the half-maximal inhibitory concentration (IC50) turned out to be 32 nM at CBP and 96 nM with MYC.

On to `C[C@H]1Nc2c(cccc2N2CCCc3cc(-c4cnn(C)c4)c(C(F)F)cc32)NC1=O` [Example 81, (R)-5-(7-(difluoromethyl)-6-(1-methyl-1H-pyrazol-4-yl)-3,4-dihydroquinolin-1(2H)-yl)-3-methyl-3,4-dihydroquinoxalin-2(1H)-one], for which, in the test on MYC, inhibition was half-maximal at 131 nM (IC50).
